PubChem BioAssay (NCI)
Where “and” joins values, the source holds several entries; their conditions need not be identical. Equal values may be shown once.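 48-hour exposure; five concentrations; linearly interpolated endpoints. Here, GI50 denotes the concentration required for 50% inhibition of growth. TGI: total growth inhibition.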

Test system: MDA-MB-468 breast
Test: DTP human tumour cell line panel, 48 h

| Compound | GI50 | TGI |
| --- | --- | --- |
| C[C@H](Nc1cc(Cl)nc2c1cnn2[C@@H]1O[C@H](COP(=O)(O)CP(=O)(O)O)[C@@H](O)[C@H]1O)c1ccccc1F | > 100 µM | > 100 µM |
| O=C1CCC/C=C\C[C@H]2C=CC(=O)/C2=C/C[C@H](C/C=C\CC(F)(F)F)O1 | 0.521 µM | 2.51 µM |
| COc1cccc2c1C(=O)c1c(O)c3c(c(O)c1C2=O)C[C@@](O)(/C(C)=N/NC(=O)c1ccc(Cl)cc1)C[C@@H]3OC1CC(N)C(O)C(C)O1 (stereo partly drawn) | 0.174 µM | 0.495 µM |
| CN1CC[C@@H](c2c(O)cc(O)c3c(=O)cc(-c4ccc(C(F)(F)F)cc4Cl)oc23)[C@@H]1CO | 12.2 µM | 29.6 µM |
| Cc1cc(N(CCCNc2ccnc3cc(Cl)ccc23)Cc2ccc3c(c2)OCO3)nc(N2CCOCC2)n1 | 0.202 µM | 0.562 µM |
| O=[P@@]1(c2ccccc2)O[C@H](COCc2ccccc2)[C@@H](OCc2ccccc2)[C@H](OCc2ccccc2)[C@H]1NCc1ccccc1 | 3.06 µM | 12.6 µM |
| O=C1c2cccc3cccc(c23)C(=O)N1CCCCCN1CCN(CCCCCOc2ccc(-c3nc4ccc(N5CCOCC5)cc4[nH]3)cc2)CC1 | 20.3 µM | 34.6 µM |
| COc1cc(/C=C/C(=O)c2cccc(-n3cc(-c4ccc(Cl)cc4)[nH]c3=O)c2)ccc1O | 3.12 µM | 19.2 µM |
| COc1ccc(-c2nsc3c2NC(=O)CC3c2cccc(OC)c2)cc1 (stereo not drawn) | 0.395 µM | 3.97 µM |
| CCOC(=O)c1c(-c2ccc(OC)cc2)c(C#N)c2c(C#N)c(N)nn2c1N | 2.08 µM | 6.86 µM |
| NCCc1cc(O)c(O)cc1O | 20.7 µM | 97.8 µM |
| COc1ccc(-c2nnc(N3CCN(C(=O)CN4CCN(c5ccccc5)CC4)CC3)nc2-c2ccc(OC)cc2)cc1 | 8.31 µM | > 100 µM |
| CS(=O)(=O)Nc1cc(-c2ccc3ncnc(Nc4c(Cl)ccc5c4OCO5)c3c2)cnc1Cl | 0.128 µM | 0.454 µM |
| COC(=O)c1ccc2c(c1)/C(=C\c1cc(Br)c(O)c(Br)c1)C(=O)N2 | 6.09 µM | > 22 µM |
| COc1ccccc1Nc1ncc(-c2ccccc2)o1 | 3.02 µM | > 25 µM |
| O=C(NNc1ccccc1)C(=O)NNc1ccccc1 | > 100 µM | > 100 µM |
| CC1(C)N=C(N)N=C(N)N1c1ccc(CCCCc2ccc(Cl)c(S(=O)(=O)F)c2)c(Cl)c1 | 2.51 µM | 16.4 µM |
| O=C1c2cc3c(cc2-c2c1c1cc(Cl)c(Cl)cc1c(=O)n2C[C@H](O)CO)OCO3 | < 0.01 µM | 0.0305 µM |
| Cc1nc2cc(Nc3nc(Nc4ccc(F)cc4)nc(-c4cccs4)n3)ccc2n1Cc1ccccc1 | 3.62 µM | 35.4 µM |
| Nc1c(C(=O)c2ccccc2)cnn1-c1ccc(F)cc1 | > 25 µM | > 25 µM |
| O=[N+]([O-])c1ccc(CI)cc1 | 1.71 µM | 4.09 µM |
| CSc1nc(NC2OC(COC(C)=O)C(OC(C)=O)C(OC(C)=O)C2OC(C)=O)c(N=CC=Nc2c(NC3OC(COC(C)=O)C(OC(C)=O)C(OC(C)=O)C3OC(C)=O)nc(SC)n(C)c2=O)c(=O)n1C (stereo not drawn) | 39.4 µM | 50 µM |
| COc1ccc(C(O)(CCC(C)C)C(CN2CCOCC2)c2ccc(Cl)cc2)cc1 (stereo not drawn) | 7.43 µM | 23.4 µM |
| Nc1ncc(-c2ccc3ncnc(N4CCc5cc(F)c(Cl)cc54)c3c2)cc1CO | 0.236 µM | 0.933 µM |
| CC(C)OC(=O)[C@H](C)NP(=O)(OC[C@H]1O[C@@H](n2ccc(=O)[nH]c2=O)[C@](C)(F)[C@@H]1O)Oc1ccccc1 (stereo partly drawn) | > 100 µM | > 100 µM |

| Compound | GI50 | TGI |
| --- | --- | --- |
| CN(C)C/C=C/C(=O)Nc1cc2c(Nc3ccc(F)c(Cl)c3)ncnc2cc1O[C@H]1CCOC1 | < 0.01 µM and 0.00112 µM | 0.01 µM and 0.0067 µM |
| Nc1ccn(C2OC(CO)C(O)C2O)c(=O)n1 (stereo not drawn) | > 61.1 µM | > 100 µM |
| C=COC(=O)N[C@H]1CCc2cc(OC)c(OC)c(OC)c2-c2ccc(SC)c(=O)cc21 | < 0.01 µM | > 100 µM |
| Cc1ccc2c(C3C(C#N)=C(N)Oc4cc5ccccc5cc43)cc(=O)oc2c1 (stereo not drawn) | 0.925 µM | 67.1 µM |
| Cn1c(Nc2ccc(C(F)(F)F)cc2)nc2cc(Oc3ccnc(-c4ncc(C(F)(F)F)[nH]4)c3)ccc21 | 0.127 µM | 11.4 µM |
| C#Cc1nc(Nc2cc(C)[nH]n2)c2ccccc2n1 | 0.184 µM | 0.45 µM |
| CCc1ccc(/C=C/c2ccc(O)c3ncccc23)[n+](C)c1 | 0.539 µM | > 36.5 µM |
| CC(C)=CCc1cc(O)cc2c1OC(C=C(C)C)C1=C2C(=O)C2=C(C1=O)S(=O)(=O)CCN2 (stereo not drawn) | 2.68 µM | 8.24 µM |
| CC(C(=O)O)c1cccc(Oc2ccccc2)c1 (stereo not drawn) | > 100 µM | > 100 µM |
| BrCc1cccc(C[P+](c2ccccc2)(c2ccccc2)c2ccccc2)c1 | 2.25 µM | 8.36 µM |
| CC1CCN(C(=O)OCc2nc3nc(Cl)nc(N4CCOCC4)c3[nH]2)CC1 | 0.715 µM | 2.37 µM |
| O=S(=O)(Nc1ccc(Cl)cc1Cl)c1ccc(-c2cnc(C3CC3)o2)cc1 | 0.339 µM | 2.9 µM |
| COc1cc(/C=C\c2cc(OC)c(OC)c(OC)c2)cc(N/C=C\C(=O)c2cc(OC)c(OC)c(OC)c2)c1OC | 1.88 µM | 6.34 µM |
| Clc1nc(Cl)nc(Nc2cccc3ccccc23)n1 | 52.1 µM | > 100 µM |
| CCN(Cc1ccc(F)cc1)c1ccc(CO)c(Br)c1 | 0.0224 µM | 0.0608 µM |
| Cn1cc(-c2csc(-c3c[nH]c4ccc(Br)cc34)n2)c2cnccc21 | 1.68 µM | 3.56 µM |
| Cc1ccc(Nc2oc(-c3ccccc3)nc2[P+](c2ccccc2)(c2ccccc2)c2ccccc2)cc1 | 0.266 µM | 0.895 µM |
| COc1cc(C2CC(c3cccc(Nc4ccncc4)c3)=NN2c2ccc(Cl)cc2)cc(OC)c1OC (stereo not drawn) | 1.63 µM | 3.45 µM |
| COc1ccc(-c2cc(/C=C/C(=O)c3ccc(OC)c(OC)c3)[nH]n2)cc1 | 1.22 µM | 2.94 µM |
| Cn1c(=O)c(Oc2ccc(F)cc2)cc2cnc(NC3CCOCC3)nc21 | > 25 µM | > 25 µM |
| CN(C)C(=S)Sc1ccc([N+](=O)[O-])cc1[N+](=O)[O-] | 2.12 µM | 5.78 µM |
| O=[N+]([O-])c1cccc2ccc(N/N=C/c3ccccc3O)nc12 | 0.676 µM | > 100 µM |
| CN(C)c1ccc(N=Nc2ccccn2)c(O)c1 | 0.204 µM | 0.912 µM |
| CN(C)CCC(=O)C(=Cc1ccc(O)cc1)C(=O)CCN(C)C | 26.8 µM | 75.2 µM |
